“Also recorded” adds a separate entry of the source.
How the values were obtained:
[1] = tested on: papain; experiment: papain in HEPES buffer (50 mM, pH=7.4); details: 37 °C, up to 8 h
[2] = tested on: pepsin; experiment: pepsin in HEPES buffer (50 mM, pH=7.4); details: 37 °C, up to 8 h
[3] = tested on: chymotrypsin; experiment: chymotrypsin in HEPES buffer solution (50 mM, pH = 7.4); details: 37 °C, up to 8 h
[4] = target: T1, chymotrypsin (Bos taurus, UniProt P00766); experiment: LC-MS analysis of enzymatic fragments and cleavage sites with chymotrypsin; type: in vitro ADME; set-up: purchased; details: LC-MS (ESI); HEPES 50 mM pH 7.4, 37 °C, peptide:protease 40:1
Protocol: To further investigate how glycosylation promotes the enzymatic digestion of D-amino acid-containing peptides, we analyzed the enzymatic cleavage sites of the glycosylated peptides using LC-MS (Figures S6–S14).
(β-D-GalNAc ) (H) in the presence of chymotrypsin. The peptides were dissolved in HEPES
Chymotrypsin was added to the above solution. In which the peptide: protease (ω: ω) = 40:1.
Incubation was performed at 37°C. Method of stopping enzymatic digestion after reaching
reaction time: Chymotrypsin is extinguished with 1% TFA. Each experiment was performed

[5] = target: T1, chymotrypsin; experiment: Enzymatic degradation by chymotrypsin, substrate decay followed by HPLC; details: 37 °C; for Substrate decay rate constant in the presence of chymotrypsin: peptide 0.5 mg/mL in HEPES 50 mM pH 7.4, chymotrypsin 0.5 mg/mL, peptide:protease 40:1 (w/w), stopped with 1% TFA, HPLC-UV 215 nm, fit y=A0×exp(−k1×x), each experiment three times, Figure 7; for Enzymatic degradation by chymotrypsin, compared with 5-t: peptide 0.5 mg/mL, HEPES 50 mM pH 7.4, chymotrypsin 0.5 mg/mL, 40:1 (w/w), up to 8 h, HPLC, three times, Figures 5C, 6
[6] = target: T2, Proteinase K (PROK) (Parengyodontium album, UniProt P06873); experiment: Enzymatic degradation by Proteinase K (PROK), protease resistance; type: in vitro ADME; details: peptide 0.5 mg/mL in HEPES 50 mM pH 7.4 (600 μL) + PROK 1.5 mg/mL (15.0 μL); 50 °C; 0-8 h; quenched with 1% TFA; HPLC 215 nm; three times; Figure 4
T2 construct: purchased
T2 sequence (P06873 106-384): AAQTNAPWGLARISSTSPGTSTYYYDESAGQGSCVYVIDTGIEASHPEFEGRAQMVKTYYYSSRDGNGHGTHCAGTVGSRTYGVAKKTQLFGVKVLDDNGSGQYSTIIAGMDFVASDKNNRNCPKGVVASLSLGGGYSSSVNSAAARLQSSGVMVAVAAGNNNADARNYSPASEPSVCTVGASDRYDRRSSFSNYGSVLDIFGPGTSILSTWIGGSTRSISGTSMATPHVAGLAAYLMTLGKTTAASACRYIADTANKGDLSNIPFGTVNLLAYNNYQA
Protocol: The peptides were dissolved in HEPES buffer (50 mM, pH = 7.4) to a final concentration of 0.5 mg/mL. Proteinase K (PROK) was prepared in deionized water at a final concentration of 1.5 mg/mL. The peptide solutions (600 μL) were then incubated with PROK solution (15.0 μL) at 50 °C. At 0, 0.5, 1.0, 2.0, 4.0, and 8.0 h intervals, 100 μL of the digestion mixture was taken and quenched with 100 μL of 1% TFA in water. The enzymatic hydrolysis of peptides was monitored by HPLC at 215 nm. Each experiment was performed three times.

[7] = RP-HPLC retention time of peptides (hydrophobicity/polarity); type: physicochemical; details: chromatographic, C18 reversed phase, 0.1% TFA water/acetonitrile, gradient 10-50% solvent B over 30 min, 1 mL/min, UV; used as measure of hydrophobicity/polarity; Figure 3D
Protocol: Purification was performed on a ZORBAX Eclipse XDB-C18 reversed-phase column (5 μm, 9.4 × 250 mm, Agilent, Santa Clara, CA, USA) using solvent A (0.1% TFA in water) and solvent B (0.1% TFA in acetonitrile). Elution was performed at a flow rate of 1 mL/min with a gradient of 10–50% solvent B over 30 min, and detection was carried out using a UV detector at 220 nm. All purified peptide samples were freeze-dried to yield a white powder.

Row | Substance | cleaved bond [3] | Cleavage sites in the presence of chymotrypsin [4] | Enzymatic fragments in the presence of chymotrypsin [4] | also measured
1 | KYNE(t-β-L-Rib)WRSED | Tyr2-Asn3; also recorded: Arg7-Ser8 |  |  | 
2 | KYNE(t-β-D-Glc)WRSED [5-t-(β-D-Glc)] |  | Tyr2-Asn3, Arg7-Ser8 | KY, NE-(t-β-D-Glc)-WR, NE-(t-β-D-Glc)-WRSED, SED | Enzymatic degradation by PROK, substrate decay curves compared [6]: nearly identical
3 | KYNEtWR(S-β-D-Glc)ED [5-t-(S-β-D-Glc)] |  | Tyr2-Asn3, Arg7-Ser8 | KY, KYNE-t-WR, NE-t-WR, NE-t-WR-(S-β-D-Glc)-ED, (S-β-D-Glc)-ED | Enzymatic degradation by PROK, substrate decay curves compared [6]: higher than that of 5-t-(β-D-Glc)
4 | KYNE(t-β-L-Rib)WRSED [5-t-(β-L-Rib)] |  | Tyr2-Asn3, Arg7-Ser8 | KY, KYNE(t-β-L-Rib)-WR, NE-(t-β-L-Rib)-WR, NE-(t-β-L-Rib)-WRSED, SED | Enzymatic degradation by PROK, substrate decay curves compared [6]: more pronounced inhibitory effect on peptide enzymatic degradation compared to D-ribose; Substrate decay rate constant in the presence of chymotrypsin [5]: 0.144 h⁻¹; Enzymatic degradation by chymotrypsin, compared with 5-t [5]: digested more efficiently than 5-t
5 | KYNEtWRSED | Tyr2-Asn3; also recorded: Arg7-Ser8 |  |  | not cleaved [1]: no enzymatic degradation; substrate molar fraction 1.0 at 8 h; not cleaved [2]: no enzymatic degradation; substrate molar fraction 1.0 at 8 h
6 | KYNEtWR(S-β-D-Glc)ED | Tyr2-Asn3; also recorded: Arg7-Ser8 |  |  | 
7 | KYNE(t-α-D-Glc)WRSED | Arg7-Ser8; also recorded: Tyr2-Asn3 |  |  | 
8 | KYNE(t-β-D-Glc-Ac4)WRSED [5-t-(β-D-Glc-Ac4)] |  |  |  | Retention time in RP-HPLC [7]: 21.481 min

Second part, led by results:

Row | cleaved bond [3] | Cleavage sites in the presence of chymotrypsin [4] | Substance | Enzymatic fragments in the presence of chymotrypsin [4] | also measured
9 | Tyr2-Asn3; also recorded: Arg7-Ser8 |  | KYNE(t-β-D-Glc)WRSED |  | not cleaved [1]: no enzymatic degradation; substrate molar fraction 1.0 at 8 h; not cleaved [2]: no enzymatic degradation; substrate molar fraction 1.0 at 8 h
10 | Tyr2-Asn3; also recorded: Arg7-Ser8 |  | KYNE(t-β-D-Gal)WRSED |  | 
11 |  | Tyr2-Asn3, Arg7-Ser8 | KTNE(t-β-D-Gal-NAc)WRSED [5-t-(β-D-GalNAc)] | KY, NE-(t-β-D-GalNAc)-WR, NE-(t-β-D-Gal-NAc)-WRSED, SED | Substrate decay rate constant in the presence of chymotrypsin [5]: 0.106 h⁻¹
12 | Tyr2-Asn3; also recorded: Arg7-Ser8 |  | KYNE(t-β-D-Glc)WR(S-β-D-Glc)ED |  | 
13 | Tyr2-Asn3; also recorded: Arg7-Ser8 |  | KYNE(t-β-D-Rib)WRSED |  | 
14 |  | Tyr2-Asn3, Arg7-Ser8 | KYNE(t-α-D-Glc)WRSED [5-t-(α-D-Glc)] | KY, NE-(t-α-D-Glc)-WR, NE-(t-α-D-Glc)-WRSED, SED | 
15 | Arg7-Ser8 |  | KTNE(t-β-D-Gal-NAc)WRSED |  | 
16 |  | Tyr2-Asn3, Arg7-Ser8 | KYNEtWRSED [5-t] | KY, NE-t-WR, NE-t-WRSED, SED | Substrate decay rate constant in the presence of chymotrypsin [5]: 0.103 h⁻¹
17 |  | Tyr2-Asn3, Arg7-Ser8 | KYNE(t-β-D-Gal)WRSED [5-t-(β-D-Gal)] | KY, NE-(t-β-D-Gal)-WR, NE-(t-β-D-Gal)-WRSED, SED | 
18 |  | Tyr2-Asn3, Arg7-Ser8 | KYNE(t-β-D-Rib)WRSED [5-t-(β-D-Rib)] | KY, KYNE-(t-β-D-Rib)-WR, NE-(t-β-D-Rib)-WR, NE-(t-β-D-Rib)-WRSED, SED | Substrate decay rate constant in the presence of chymotrypsin [5]: 0.187 h⁻¹; Enzymatic degradation by chymotrypsin, compared with 5-t [5]: digested more efficiently than 5-t

— article PMC11820358 (Molecules, 2025)
